From patent publication US8999983B2, “Modulators of Hec1 activity and methods therefor” (Taivex Therapeutics Corporation, priority 2011, dated 2015)

Columns and labels:
[1] = tested on: MDA-MB-468; experiment: Antiproliferation assay (MTS), MDA-MB-468 cells; assay type: cell-based; settings: Homo sapiens, MDA-MB-468, 96 h, Table 1, read-out: Antiproliferative IC50 MDA-MB-468
How it was run: (§1)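 Cells seeded after overnight attachment were treated in triplicate for 96 h at 37 °C, 5% CO2, final DMSO below 1%. Viability read by MTS absorbance; concentration-response curves fitted by linear regression against DMSO controls.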

[2] = tested on: cancer cells; experiment: DNA content analysis (propidium iodide, FACS); assay type: cell-based
Experimental: DNA Content Analysis: Cells were plated in a 10-cm culture plate and cultured overnight. Cells were incubated with the compound for the indicated time and collected at the indicated time points. Cells were fixed with 70% ethanol overnight, stained with propidium iodide solution (1.25 mg/ml propidium iodide (Sigma) and 20 μl/ml […] in PBS) and subjected to fluorescence activated cell sorting (FACS). The results were analyzed by Cell Quest software (BD Biosciences, San Jose Calif. 95131 USA).

[3] = tested on: K562; experiment: Antiproliferation assay (MTS), K562 cells; assay type: cell-based; settings: Homo sapiens, K562, 96 h, Table 1, read-out: Antiproliferative IC50 K562
How it was run: as §1

[4] = molecular target: T1, Hec1-Nek2 interaction (Homo sapiens, UniProt O14777); experiment: Co-immunoprecipitation analysis of Hec1-Nek2 interaction in K562 cells; assay type: cell-based; settings: K562 cells treated 8 or 16 hours
T1 construct: endogenous in cells; host or cells: K562
T1 sequence (O14777 1-642): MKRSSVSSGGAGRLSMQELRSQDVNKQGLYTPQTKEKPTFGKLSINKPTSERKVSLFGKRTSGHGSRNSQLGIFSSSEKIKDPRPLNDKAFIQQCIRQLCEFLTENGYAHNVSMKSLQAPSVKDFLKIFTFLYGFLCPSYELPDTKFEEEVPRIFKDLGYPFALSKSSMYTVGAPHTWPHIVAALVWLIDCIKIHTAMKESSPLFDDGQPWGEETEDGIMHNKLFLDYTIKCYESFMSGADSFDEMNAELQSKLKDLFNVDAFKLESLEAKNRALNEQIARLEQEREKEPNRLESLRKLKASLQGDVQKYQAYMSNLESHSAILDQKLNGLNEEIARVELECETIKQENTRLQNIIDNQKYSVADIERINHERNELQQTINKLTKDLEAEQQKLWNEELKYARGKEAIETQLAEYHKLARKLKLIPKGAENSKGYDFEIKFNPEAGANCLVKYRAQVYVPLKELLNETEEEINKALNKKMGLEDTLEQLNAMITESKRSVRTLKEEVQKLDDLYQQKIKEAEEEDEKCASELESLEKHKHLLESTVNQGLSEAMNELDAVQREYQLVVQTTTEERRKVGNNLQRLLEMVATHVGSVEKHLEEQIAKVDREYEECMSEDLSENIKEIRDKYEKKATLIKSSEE
Experimental: Co-Immunoprecipitation Analysis: Co-immunoprecipitation (Co-IP)/Western blotting assays were performed to assess the effects of Hec1 inhibitory compounds on Hec1-Nek2 interaction. K562 cells were treated with Hec1 inhibitory compounds as indicated. After harvesting and washing once with cold PBS, cells were lysed on ice in lysis buffer (50 mM Tris (pH 7.5), 250 mM NaCl, 5 mM EDTA (pH 8.0), 0.1% NP-40, 1 mM PMSF, 50 mM NaF, and protease inhibitor cocktail (P/N P8340 Sigma Aldrich, St. Louis Mo. USA) for 30 min. Lysates were then centrifuged at 12,000 rpm at 4° C. for 20 minutes. Input supernatant was incubated in the presence of anti Nek2 antibody (rabbit anti-Nek2, Rockland Immunochemicals, Gilbertsville, Pa. 19525 USA) or IgG control antibody for 2 h at 4° C., followed by the addition protein G coupled to agarose beads (GE Healthcare, Anaheim Calif. 92805 USA). After mixing for 1 h at 4° C., the agarose beads were centrifuged at 12,000 rpm at 4° C. for 20 seconds. The beads were then washed 5 times with cold Co-IP buffer, boiled in SDS-PAGE sample buffer followed by SDS-PAGE. The presence of Hec1 and Nek2 was detected by Western blotting with mouse monoclonal antibodies directed to Hec1 (GeneTex, Inc., Irvine Calif. 92606 USA) and Nek2 (BD Biosciences, San Jose Calif. 95131 USA). […]

[5] = tested on: BT474 xenograft; experiment: Mouse xenograft study, BT474 breast cancer; assay type: in vivo, nude mice
Experimental: Mouse Xenograft Studies: Xenograft studies adapted from a previous published protocol (Wu et al, Cancer Res. 2008 Oct. 15; 68(20):8393-9). Female BALB/c nude (nu/nu) mice (5-8 weeks) were obtained from Lasco (Industrial Park, Tai-Ping Area, Taichung City, Taiwan). The animals were maintained under specific pathogen-free conditions, and food and water were supplied ad libitum. Housing and all procedures involving animals were performed according to protocols approved by the IACUC in DCB. Nude mice were inoculated with 17-β-estradiol pellets 72 to 96 h before implantation of BT-474 cells. For subcutaneous implantation of BT-474 cells, cells (1×10^7 in matrix gel/animal) were injected subcutaneously into the right subaxillary region. Treatment started when average tumor volume reached about 200 mm^3; mice were treated (p.o., QD/28 cycles in total) with vehicle A (0.5% methylcellulose), or candidate compounds formulated in vehicle A (10-50 mg/kg body weight). Perpendicular diameter measurement of each tumor were made with digital calipers and the volume of the tumor calculated using formula (L×W×W)/2, in which L and W represent the length and the width, respectively. Body weights were measured three times weekly.
The in vivo effectiveness of contemplated compounds in the reduction of tumor volume in nude mice is readily apparent.
Development of resistance to treatment in advanced stage tumors is a well known phenomenon. Activity of select Hec1 inhibitor in such late stage tumors was determined by re-dosing of BT474 xenografted animals that had previously subjected to 35 days of treatment with 110095 (compound 27 of Table 1). Re-treatment with 110095 was starting on day 42 and continued for 21 days.

[6] = tested on: Huh-7 xenograft; experiment: Mouse xenograft study, Huh-7 liver cancer; assay type: in vivo; settings: Huh-7 liver cancer xenograft, nude mice

IC50 [1]: 19.1 nM
IC50 [3]: 18 nM
Structure (SMILES): COCCOc1cnc(Sc2cc(C)c(-c3csc(NC(=O)c4ccncc4)n3)c(C)c2)cn1 [Compound 27, N-(4-{4-(5-(2-methoxyethoxy)pyrazin-2-ylthio)-2,6-dimethylphenyl}thiazol-2-yl)isonicotinamide]
sub-G1 population (apoptotic cells) [2]: increase in the sub-G1 population
Hec1/Nek2 interaction (Hec1 in Nek2 immunoprecipitates) [4]: significantly disrupted Hec1/Nek2 interaction
xenograft tumor outgrowth ([5]; BT474 breast cancer xenograft, nude mice): inhibition of xenograft tumor outgrowth
activity in late stage tumors on re-treatment ([5]; BT474 xenografted animals after 35 days of treatment, re-treatment from day 42 for 21 days): remained effective with late stage tumors
xenograft tumor outgrowth [6]: inhibition of xenograft tumor outgrowth
